Our source for the AC1.4 values is US20250296916A1, “BICYCLIC PIPERAZINONES AND THERAPEUTIC USES THEREOF” (Cytokinetics, Inc., priority 2022, published 2025).

In the test the test system is rabbit skeletal myofibrils (approximately 90% fast fibers). In words: Activation of fast skeletal myofibrils (PUMA coupled-enzyme ATPase assay). It counts as biochemical. The following applies: concentration at which the compound increased the enzymatic activity by 40%; calcium at pCa25; PM12 buffer pH 6.8. The procedure:
Preparation of fast skeletal myofibrils: Rabbit skeletal myofibrils were prepared based upon the method of Herrmann et al. (Biochem. 32 (28): 7255-7263 (1993). Myofibrils were prepared from rabbit psoas muscle purchased from Pel-Freez Biologicals (Arkansas) within 2 days of ordering, stored on ice. Minced muscle was homogenized in 10 volumes of ice-cold “standard” buffer (50 mM Tris, pH 7.4, 0.1 M KOAc, 5 mM KCl, 2 mM dithiothreitol (DTT), 0.2 mM phenylmethylsulfonyl fluoride (PMSF), 10 μM leupeptin, 5 μM pepstatin, and 0.5 mM sodium azide) containing 5 mM ethylenediaminetetraacetic acid (EDTA) and 0.5% Triton X-100 using an Omni-Macro homogenizer. Myofibrils were recovered by low speed centrifugation (3000 rpm for 10 minutes) and washed 2 times in the Triton X-100 containing buffer to ensure removal of cellular membrane. Following the Triton washes, myofibrils were washed 3 times in “standard” buffer containing 2 mM magnesium acetate. A final wash in assay buffer (12 mM piperazine-1,4-bis(2-ethanesulfonic acid) (PIPES), pH 6.8, 60 mM KCl, 1 mM DTT) was performed and brought to 10% sucrose for flash freezing in liquid nitrogen and storage at −80° C.
Activation of Fast Skeletal Myofibrils: Fast fiber activators were identified by measuring the enzymatic activity of muscle myofibril preparations using the proprietary PUMA (trademark) (see, e.g., U.S. Pat. Nos. 6,410,254, 6,743,599, 7,202,051, and 7,378,254) assay system. Myofibril preparations consisted of rabbit skeletal muscle (approximately 90% fast fibers) that had been mechanically homogenized and washed with a detergent (Triton X-100) to remove cellular membranes. This preparation retained all of the sarcomeric components in a native conformation and the enzymatic activity was still regulated by calcium. Compounds were tested using a myofibril suspension and a level of calcium sufficient to increase enzymatic activity of the myofibrils to 25% of their maximal rate (termed pCa25). Enzymatic activity was tracked via a pyruvate kinase and lactate dehydrogenase-coupled enzyme system. This assay regenerates myosin-produced ADP into ATP by oxidizing NADH, producing an absorbance change at 340 nm. The buffering system was 12 mM PIPES, 2 mM MgCl2, 1 mM DTT at pH 6.8 (PM12 buffer). […] In Table 3, “Example Compound” refers to the compound labeled with the same number in Table 2.
On to `CCCC1C(=O)Nc2ccccc2N1C(=O)c1ccc(Cl)nc1` (centres unmarked) [Compound 1, 4-(6-chloronicotinoyl)-3-propyl-3,4-dihydroquinoxalin-2(1H)-one], for which the AC1.4 is 0.45 µM.

`CCC[C@H]1C(=O)Nc2ccc(Cl)cc2N1C(=O)c1ccc(Cl)nc1` [Compound 2, (S)-6-chloro-4-(6-chloronicotinoyl)-3-propyl-3,4-dihydroquinoxalin-2(1H)-one]: the AC1.4 was found to be 0.71 µM.

As for `CCC[C@H]1C(=O)Nc2ccccc2N1C(=O)c1ccc(C)nc1` [Compound 3, (S)-4-(6-methylnicotinoyl)-3-propyl-3,4-dihydroquinoxalin-2(1H)-one], the AC1.4 worked out at 0.77 µM.

Turning to `CCC[C@H]1C(=O)Nc2cccc(Br)c2N1C(=O)c1ccc(Cl)nc1` [Compound 4, (S)-5-bromo-4-(6-chloronicotinoyl)-3-propyl-3,4-dihydroquinoxalin-2(1H)-one], the AC1.4 came out at 0.72 µM.

`CCC[C@H]1C(=O)Nc2ccccc2N1C(=O)c1ccc(Cl)nc1` [Compound 5, (S)-4-(6-chloronicotinoyl)-3-propyl-3,4-dihydroquinoxalin-2(1H)-one]: the AC1.4 was found to be 0.38 µM.

Turning to `CCC[C@H]1C(=O)Nc2ccccc2N1C(=O)c1ccc(F)nc1` [Compound 6, (S)-4-(6-fluoronicotinoyl)-3-propyl-3,4-dihydroquinoxalin-2(1H)-one], the AC1.4 was determined as 2.19 µM.

For the compound `CCC[C@H]1C(=O)Nc2cccc(C3CC3)c2N1C(=O)c1ccc(C)nc1` [Compound 7, (S)-5-Cyclopropyl-4-(6-methylnicotinoyl)-3-propyl-3,4-dihydroquinoxalin-2(1H)-one], the AC1.4 came to 0.96 µM.

Turning to `CCC[C@H]1C(=O)Nc2ccccc2N1C(=O)Nc1ccc(C)nc1` [Compound 8, (S)-N-(6-methylpyridin-3-yl)-3-oxo-2-propyl-3,4-dihydroquinoxaline-1(2H)-carboxamide], the AC1.4 was 2.73 µM.

Consider `CCC[C@H]1C(=O)Nc2ccccc2N1C(=O)c1ccc[nH]1` [Compound 9, (S)-3-propyl-4-(1H-pyrrole-2-carbonyl)-3,4-dihydroquinoxalin-2(1H)-one], for which the AC1.4 worked out at 0.74 µM.

Consider `CCC[C@H]1C(=O)Nc2ccccc2N1C(=O)c1ccccc1` [Compound 10, (S)-4-benzoyl-3-propyl-3,4-dihydroquinoxalin-2(1H)-one], for which the AC1.4 was 0.33 µM.

In the case of `CCC[C@H]1C(=O)Nc2ccccc2N1C(=O)c1ccncc1` [Compound 11, (S)-4-isonicotinoyl-3-propyl-3,4-dihydroquinoxalin-2(1H)-one], the AC1.4 came out at 0.97 µM.

`CCC[C@H]1C(=O)Nc2ccccc2N1C(=O)c1cccnc1` [Compound 12, (S)-4-nicotinoyl-3-propyl-3,4-dihydroquinoxalin-2(1H)-one]: the AC1.4 turned out to be 1.55 µM.

`CCC[C@H]1C(=O)Nc2ccccc2N1C(=O)c1conc1C` [Compound 14, (S)-4-(3-methylisoxazole-4-carbonyl)-3-propyl-3,4-dihydroquinoxalin-2(1H)-one]: the AC1.4 came to 1.66 µM.

For `CCC[C@H]1C(=O)Nc2ccccc2N1C(=O)c1cccs1` [Compound 15, (S)-3-propyl-4-(thiophene-2-carbonyl)-3,4-dihydroquinoxalin-2(1H)-one], the AC1.4 amounted to 0.17 µM.

Turning to `CCC[C@H]1C(=O)Nc2ccccc2N1C(=O)c1cncc(C)c1` [Compound 16, (S)-4-(5-methylnicotinoyl)-3-propyl-3,4-dihydroquinoxalin-2(1H)-one], the AC1.4 is 1.41 µM.

Regarding `CCC[C@H]1C(=O)Nc2ccccc2N1C(=O)c1cccc(F)c1` [Compound 17, (S)-4-(3-fluorobenzoyl)-3-propyl-3,4-dihydroquinoxalin-2(1H)-one], the AC1.4 turned out to be 0.17 µM.

With `CCC[C@H]1C(=O)Nc2ccccc2N1C(=O)c1cncc(F)c1` [Compound 18, (S)-4-(5-fluoronicotinoyl)-3-propyl-3,4-dihydroquinoxalin-2(1H)-one], the AC1.4 was found to be 2.97 µM.

With `CCC[C@H]1C(=O)Nc2ccccc2N1C(=O)CCc1ccccc1` [Compound 19, (S)-4-(3-phenylpropanoyl)-3-propyl-3,4-dihydroquinoxalin-2(1H)-one], the AC1.4 worked out at 1.46 µM.

In the case of `CCC[C@H]1C(=O)Nc2ccccc2N1C(=O)c1cncc(Cl)c1` [Compound 20, (S)-4-(5-chloronicotinoyl)-3-propyl-3,4-dihydroquinoxalin-2(1H)-one], the AC1.4 turned out to be 1.52 µM.

Turning to `CCC[C@H]1C(=O)Nc2ccccc2N1C(=O)c1ccc(F)c(F)c1` [Compound 21, (S)-4-(3,4-difluorobenzoyl)-3-propyl-3,4-dihydroquinoxalin-2(1H)-one], the AC1.4 worked out at 0.07 µM.

Regarding `CCC[C@H]1C(=O)Nc2ccccc2N1C(=O)c1ccc(NC(C)=O)nc1` [Compound 22, (S)-N-(5-(3-oxo-2-propyl-1,2,3,4-tetrahydroquinoxaline-1-carbonyl)pyridin-2-yl)acetamide], the AC1.4 was 2.76 µM.

Turning to `CCC[C@H]1C(=O)Nc2ccccc2N1C(=O)c1ccc(-n2cccc2)nc1` [Compound 23, (S)-4-(6-(1H-pyrrol-1-yl)nicotinoyl)-3-propyl-3,4-dihydroquinoxalin-2(1H)-one], the AC1.4 was found to be 1.33 µM.

Take `CCC[C@H]1C(=O)Nc2ccccc2N1C(=O)c1ccc(OC(F)F)nc1` [Compound 24, (S)-4-(6-(difluoromethoxy)nicotinoyl)-3-propyl-3,4-dihydroquinoxalin-2(1H)-one]: the AC1.4 is 0.4 µM.

On to `CCC[C@H]1C(=O)Nc2ccccc2N1C(=O)c1ccc(OC(F)(F)F)nc1` [Compound 25, (S)-3-propyl-4-(6-(trifluoromethoxy)nicotinoyl)-3,4-dihydroquinoxalin-2(1H)-one], for which the AC1.4 was determined as 2.34 µM.

As to `CCC[C@H]1C(=O)Nc2ccccc2N1C(=O)c1cnc2[nH]ccc2c1` [Compound 26, (S)-3-propyl-4-(1H-pyrrolo[2,3-b]pyridine-5-carbonyl)-3,4-dihydroquinoxalin-2(1H)-one], the AC1.4 came out at 0.56 µM.

As for `CCC[C@H]1C(=O)Nc2ccccc2N1C(=O)c1ccc(N)nc1` [Compound 27, (S)-4-(6-aminonicotinoyl)-3-propyl-3,4-dihydroquinoxalin-2(1H)-one], the AC1.4 worked out at 0.76 µM.

With `CCC[C@H]1C(=O)Nc2ccccc2N1C(=O)c1ccc(N(C)C)nc1` [Compound 28, (S)-4-(6-(dimethylamino)nicotinoyl)-3-propyl-3,4-dihydroquinoxalin-2(1H)-one], the AC1.4 stood at 1.42 µM.

Turning to `CCC[C@H]1C(=O)Nc2ccccc2N1C(=O)c1ccc(N2CCCCC2)nc1` [Compound 29, (S)-4-(6-(piperidin-1-yl)nicotinoyl)-3-propyl-3,4-dihydroquinoxalin-2(1H)-one], the AC1.4 came to 2.7 µM.

Turning to `CCC[C@H]1C(=O)Nc2ccccc2N1C(=O)c1cnn(CC)c1` [Compound 30, (S)-4-(1-ethyl-1H-pyrazole-4-carbonyl)-3-propyl-3,4-dihydroquinoxalin-2(1H)-one], the AC1.4 worked out at 0.42 µM.

Regarding `CCC[C@H]1C(=O)Nc2ccccc2N1C(=O)c1cnn(CC2CC2)c1` [Compound 31, (S)-4-(1-(cyclopropylmethyl)-1H-pyrazole-4-carbonyl)-3-propyl-3,4-dihydroquinoxalin-2(1H)-one], the AC1.4 was 0.41 µM.

On to `CCC[C@H]1C(=O)Nc2ccccc2N1C(=O)c1cnn(C2CCC2)c1` [Compound 32, (S)-4-(1-cyclobutyl-1H-pyrazole-4-carbonyl)-3-propyl-3,4-dihydroquinoxalin-2(1H)-one], for which the AC1.4 came out at 0.71 µM.

In the case of `CCC[C@H]1C(=O)Nc2ccccc2N1C(=O)c1ccc(N(C)CC)nc1` [Compound 33, (S)-4-(6-(ethyl(methyl)amino)nicotinoyl)-3-propyl-3,4-dihydroquinoxalin-2(1H)-one], the AC1.4 was found to be 0.95 µM.

With `CCC[C@H]1C(=O)Nc2ccccc2N1C(=O)c1ccc(NCC(F)(F)F)nc1` [Compound 34, (S)-3-propyl-4-(6-((2,2,2-trifluoroethyl)amino)nicotinoyl)-3,4-dihydroquinoxalin-2(1H)-one], the AC1.4 turned out to be 2.59 µM.

For the compound `CCC[C@H]1C(=O)Nc2ccccc2N1C(=O)c1ccc(N2CCCCCC2)nc1` [Compound 35, (S)-4-(6-(azepan-1-yl)nicotinoyl)-3-propyl-3,4-dihydroquinoxalin-2(1H)-one], the AC1.4 came out at 1.32 µM.

With `CCC[C@H]1C(=O)Nc2ccccc2N1C(=O)c1ccc(NCc2ccccc2)nc1` [Compound 36, (S)-4-(6-(benzylamino)nicotinoyl)-3-propyl-3,4-dihydroquinoxalin-2(1H)-one], the AC1.4 was 0.65 µM.
